Assay results from patent US20140314890A1, “COMBINATION ANTI-CANCER THERAPY” (THE FLORIDA INTERNATIONAL UNIVERSITY BOARD OF TRUSTEES, priority 2011, published 2014).

Tests used:
Format in all cases: cell-based
LNCaP cells [1] = test: Cell death / cell viability by trypan blue dye exclusion test; settings: for inhibition of cell growth (percentage of live cells, FIG. 1): LNCaP, C-PC 250 and 500 μg/mL or topotecan 1 μM and 10 μM individually, 16 hours
Experimental: (§1) The LNCaP cells were grown as a complete monolayer in RPMI-1640 growth medium supplemented with 10% fetal bovine serum, 10,000 U/mL of penicillin, 10,000 μg/mL of streptomycin, 1% (+)-L-glutamine, and 1% amphotericin-B. The cells were grown at 37° C. under a humidified air/CO2 (19:1) atmosphere. All experiments were conducted using cells in logarithmic phase. In each well of a six-well plate, approximately 1×10^6 cells per well were grown for 24 hours.
(§2) To determine the cell viability, monolayer culture of LNCaP cells were treated with different concentrations of the C-PC (250 and 500 μg mL−1) and topotecan (1 μM and 10 μM) individually and in combination of C-PC (250 and 500 μg mL−1) with topotecan at 1 μM for 16 hours. After the incubation period, cell death was determined by using trypan blue dye exclusion test. To determine the levels of ROS generation, the cells cultured in 6-well plate were incubated with different concentrations of C-PC and topotecan as described above for 16 hours. At the end of incubation period, levels of ROS generated were measured using the NBT reduction assay.

LNCaP cells [2] = test: ROS generation by NBT reduction assay; settings: 16 hours
Experimental: as §1, §2

caspase-3 = test: Caspase-3 activity, colorimetric assay of cell lysates (Ac-DEVD-pNA); settings: LNCaP; C-PC 250 μg/mL, topotecan 10 μM; 16 hours
Experimental: (§3) LNCaP cells were treated with different concentrations of the C-PC (250 μg mL−1) and topotecan (10 μM) for 16 hours. After the incubation time, cells were harvested, washed and resuspended in cell lysis buffer and kept on ice for 10 minutes. The cell lysate was centrifuged at 5000 rpm for 5 minutes, the supernatant was assayed for protein concentration and further diluted with the lysis buffer to adjust the protein concentration. Equal amounts of protein from each sample was added to 96-well plates and mixed with the 2×reaction buffer [100 mM HEPES (pH 7.4), 200 mM NaCl, 20 mM dithiotheritol, 2 mM EDTA, and 0.2% chaps] and 2 mM of the respective substrates acetyl-Leu-Glu-His-Asp-p-nitroaniline (Ac-LEHD-pNA) and acetyl-Asp-Glu-Val-Asp-p-nitroaniline (Ac-DEVD-pNA). For measuring the specific activity of caspase-9 and caspase-3, the respective inhibitors Ac-LEHD-CHO and Ac-DEVD-CHO were used. Release of the cleaved p-nitroanilide from the tetrapeptide substrates was measured using the 96-well microplate reader at 405 nm.

caspase-9 = test: Caspase-9 activity, colorimetric assay of cell lysates (Ac-LEHD-pNA); settings: LNCaP; C-PC 250 μg/mL, topotecan 10 μM; 16 hours
Experimental: as §3

Molecule | inhibition of cell growth (percentage of live cells, FIG. 1) (LNCaP cells [1]) | antiproliferative activity (LNCaP cells [1]; prostate cancer cell line LNCaP, preliminary work) | rate of ROS generation (FIG. 2) (LNCaP cells [2]) | caspase-3 activity compared to untreated control cells (FIG. 4) (caspase-3) | caspase-9 activity compared to untreated control cells (FIG. 4) (caspase-9)
phycocyanin | significant inhibition of cell growth | had antiproliferative activity | significant increase in the rate of ROS generation | increased | increased
CC[C@@]1(O)C(=O)OCc2c1cc1n(c2=O)Cc2cc3c(CN(C)C)c(O)ccc3nc2-1 [topotecan, reference compound] | significant inhibition of cell growth |  | significant increase in the rate of ROS generation | increased | increased
